{
  "source": "the supplement of paper PMC11061612",
  "test_in_all_cases": "combination Emax (second highest fraction inhibited in the dose matrix, 72 h); higher = more inhibition; extreme values may be limits of the assay",
  "key": {"[1]": {"test_system": "8505C (Thyroid Gland Carcinoma)", "in_short": "(§1)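 Cell lines in DMEM/F12 or RPMI with 10% FBS were plated in 1536-well plates, held 24 hours at 37°C, 5% CO2, then given two-drug dose matrices for 72 hours (DMSO typically 0.2%). Viability was read by CellTiter-Glo 2.0 luminescence and scaled as inhibition from 0 (vehicle wells) to 1 (blank wells). Combination Emax is the second-highest inhibition in the matrix; Bliss excess is observed combination effect minus expected EA + EB − EA·EB, EA and EB being single-agent effects.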"}, "[2]": {"test_system": "COR-L279 (Small Cell Lung Carcinoma)", "in_short": "as §1"}, "[3]": {"test_system": "IM-95 (Gastric Carcinoma)", "in_short": "as §1"}, "[4]": {"test_system": "JHH-4 (Hepatocellular Carcinoma)", "in_short": "as §1"}, "[5]": {"test_system": "KMS-12-BM (Plasma Cell Myeloma)", "in_short": "as §1"}, "[6]": {"test_system": "KP-3 (Pancreatic Carcinoma)", "in_short": "as §1"}, "[7]": {"test_system": "KY821 (Acute Myeloid Leukemia)", "in_short": "as §1"}, "[8]": {"test_system": "KYSE-270 (Esophageal Squamous Cell Carcinoma)", "in_short": "as §1"}, "M059J (Glioblastoma)": {"test_system": "M059J (Glioblastoma)", "in_short": "as §1"}, "[9]": {"test_system": "MN-60 (B-Lymphoblastic Leukemia)", "in_short": "as §1"}, "NCI-H2731 (Mesothelioma)": {"test_system": "NCI-H2731 (Mesothelioma)", "in_short": "as §1"}, "[10]": {"test_system": "NCI-H3122 (Lung Adenocarcinoma)", "in_short": "as §1"}, "[11]": {"test_system": "NCI-H520 (Squamous Cell Lung Carcinoma)", "in_short": "as §1"}, "[12]": {"test_system": "NCI-H526 (Small Cell Lung Carcinoma)", "in_short": "as §1"}, "RD (Rhabdomyosarcoma)": {"test_system": "RD (Rhabdomyosarcoma)", "in_short": "as §1"}, "[13]": {"test_system": "SK-GT-2 (Gastric Carcinoma)", "in_short": "as §1"}, "[14]": {"test_system": "SK-GT-4 (Esophageal Adenocarcinoma)", "in_short": "as §1"}, "[15]": {"test_system": "ST486 (Burkitt's Lymphoma)", "in_short": "as §1"}, "[16]": {"test_system": "SU-DHL-5 (B-Cell Non-Hodgkin's Lymphoma)", "in_short": "as §1"}, "[17]": {"test_system": "VMRC-RCZ (Kidney Carcinoma)", "in_short": "as §1"}},
  "data": [
    {"smiles": "CN(C)CCCOc1ccc(-c2ccc3ncc4c(c3c2)n(C2CCOCC2)c(=O)n4C)cn1", "note": "[AZD0156] + O=C(c1cc(Cc2n[nH]c(=O)c3ccccc23)ccc1F)N1CCN(C(=O)C2CC2)CC1 [Olaparib] (first compound max 3 µM, partner max 3 µM)", "values": [
      {"measurement": "combination Emax", "setting": "[1]", "value": 0.392},
      {"measurement": "combination Emax", "setting": "[2]", "value": 0.692},
      {"measurement": "combination Emax", "setting": "[3]", "value": 0.151},
      {"measurement": "combination Emax", "setting": "[4]", "value": 0.22},
      {"measurement": "combination Emax", "setting": "[5]", "value": 0.438},
      {"measurement": "combination Emax", "setting": "[6]", "value": 0.0919},
      {"measurement": "combination Emax", "setting": "[7]", "value": 0.4},
      {"measurement": "combination Emax", "setting": "[8]", "value": 0.343},
      {"measurement": "combination Emax", "setting": "M059J (Glioblastoma)", "value": 0.318},
      {"measurement": "combination Emax", "setting": "[9]", "value": 0.119},
      {"measurement": "combination Emax", "setting": "NCI-H2731 (Mesothelioma)", "value": 0.201},
      {"measurement": "combination Emax", "setting": "[10]", "value": 0.251},
      {"measurement": "combination Emax", "setting": "[11]", "value": 0.473},
      {"measurement": "combination Emax", "setting": "[12]", "value": 0.408},
      {"measurement": "combination Emax", "setting": "RD (Rhabdomyosarcoma)", "value": 0.238},
      {"measurement": "combination Emax", "setting": "[13]", "value": 0.273},
      {"measurement": "combination Emax", "setting": "[14]", "value": 0.37},
      {"measurement": "combination Emax", "setting": "[15]", "value": 0.621},
      {"measurement": "combination Emax", "setting": "[16]", "value": 0.794},
      {"measurement": "combination Emax", "setting": "[17]", "value": 0.181}
    ]},
    {"smiles": "CC(=O)c1c(C)c2cnc(Nc3ccc(N4CCNCC4)cn3)nc2n(C2CCCC2)c1=O", "note": "[Palbociclib] + Cn1cnc2c(F)c(Nc3ccc(Br)cc3Cl)c(C(=O)NOCCO)cc21 [Selumetinib] (first compound max 10 µM, 7x7, partner max 10 µM)", "values": [
      {"measurement": "combination Emax", "setting": "[1]", "value": 0.364},
      {"measurement": "combination Emax", "setting": "[2]", "value": 0.37},
      {"measurement": "combination Emax", "setting": "[3]", "value": 0.315},
      {"measurement": "combination Emax", "setting": "[4]", "value": 0.59},
      {"measurement": "combination Emax", "setting": "[5]", "value": 0.642},
      {"measurement": "combination Emax", "setting": "[6]", "value": 0.244},
      {"measurement": "combination Emax", "setting": "[7]", "value": 0.861},
      {"measurement": "combination Emax", "setting": "[8]", "value": 0.252},
      {"measurement": "combination Emax", "setting": "M059J (Glioblastoma)", "value": 0.179},
      {"measurement": "combination Emax", "setting": "[9]", "value": 0.402},
      {"measurement": "combination Emax", "setting": "NCI-H2731 (Mesothelioma)", "value": 0.191},
      {"measurement": "combination Emax", "setting": "[10]", "value": 0.701},
      {"measurement": "combination Emax", "setting": "[11]", "value": 0.679},
      {"measurement": "combination Emax", "setting": "[12]", "value": 0.0977},
      {"measurement": "combination Emax", "setting": "RD (Rhabdomyosarcoma)", "value": 0.569},
      {"measurement": "combination Emax", "setting": "[13]", "value": 0.165},
      {"measurement": "combination Emax", "setting": "[14]", "value": 0.566},
      {"measurement": "combination Emax", "setting": "[15]", "value": 0.79},
      {"measurement": "combination Emax", "setting": "[16]", "value": 1},
      {"measurement": "combination Emax", "setting": "[17]", "value": 0.115}
    ]},
    {"smiles": "CCN(CCO)CCCOc1ccc2c(Nc3cc(CC(=O)Nc4cccc(F)c4)[nH]n3)ncnc2c1", "note": "[AZD2811] + O=C(c1cc(Cc2n[nH]c(=O)c3ccccc23)ccc1F)N1CCN(C(=O)C2CC2)CC1 [Olaparib] (first compound max 1 µM, 7x7, partner max 10 µM)", "values": [
      {"measurement": "combination Emax", "setting": "[1]", "value": 0.212},
      {"measurement": "combination Emax", "setting": "[2]", "value": 0.945},
      {"measurement": "combination Emax", "setting": "[3]", "value": 0.362},
      {"measurement": "combination Emax", "setting": "[4]", "value": 0.0395},
      {"measurement": "combination Emax", "setting": "[5]", "value": 0.34},
      {"measurement": "combination Emax", "setting": "[6]", "value": 0.144},
      {"measurement": "combination Emax", "setting": "[7]", "value": 0.455},
      {"measurement": "combination Emax", "setting": "[8]", "value": 0.322},
      {"measurement": "combination Emax", "setting": "M059J (Glioblastoma)", "value": 0.413},
      {"measurement": "combination Emax", "setting": "[9]", "value": 0.301},
      {"measurement": "combination Emax", "setting": "NCI-H2731 (Mesothelioma)", "value": 0.226},
      {"measurement": "combination Emax", "setting": "[10]", "value": 0.271},
      {"measurement": "combination Emax", "setting": "[11]", "value": 0.345},
      {"measurement": "combination Emax", "setting": "[12]", "value": 0.642},
      {"measurement": "combination Emax", "setting": "RD (Rhabdomyosarcoma)", "value": 0.19},
      {"measurement": "combination Emax", "setting": "[13]", "value": 0.203},
      {"measurement": "combination Emax", "setting": "[14]", "value": 0.223},
      {"measurement": "combination Emax", "setting": "[15]", "value": 0.856},
      {"measurement": "combination Emax", "setting": "[16]", "value": 1},
      {"measurement": "combination Emax", "setting": "[17]", "value": 0.195}
    ]},
    {"smiles": "CN(CCO)CC[C@H](CSc1ccccc1)Nc1ccc(S(=O)(=O)NC(=O)c2ccc(N3CCC([C@@H](O)c4ccccc4-c4ccc(Cl)cc4)CC3)cc2)cc1S(=O)(=O)C(F)(F)F", "note": "[AZD4320] + C1CN(CCC1(C(=O)N[C@@H](CCO)C2=CC=C(C=C2)Cl)N)C3=NC=NC4=C3C=CN4 [Capivasertib] (first compound max 1 µM, 7x7, partner max 3 µM)", "values": [
      {"measurement": "combination Emax", "setting": "[1]", "value": 0.135},
      {"measurement": "combination Emax", "setting": "[2]", "value": 0.983},
      {"measurement": "combination Emax", "setting": "[3]", "value": 0.658},
      {"measurement": "combination Emax", "setting": "[4]", "value": 0.0846},
      {"measurement": "combination Emax", "setting": "[5]", "value": 1},
      {"measurement": "combination Emax", "setting": "[6]", "value": 0.0865},
      {"measurement": "combination Emax", "setting": "[7]", "value": 1},
      {"measurement": "combination Emax", "setting": "[8]", "value": 0.23},
      {"measurement": "combination Emax", "setting": "M059J (Glioblastoma)", "value": 0.486},
      {"measurement": "combination Emax", "setting": "[9]", "value": 0.137},
      {"measurement": "combination Emax", "setting": "NCI-H2731 (Mesothelioma)", "value": 0.197},
      {"measurement": "combination Emax", "setting": "[10]", "value": 0.285},
      {"measurement": "combination Emax", "setting": "[11]", "value": 0.593},
      {"measurement": "combination Emax", "setting": "[12]", "value": 0.929},
      {"measurement": "combination Emax", "setting": "RD (Rhabdomyosarcoma)", "value": 0.575},
      {"measurement": "combination Emax", "setting": "[13]", "value": 0.403},
      {"measurement": "combination Emax", "setting": "[14]", "value": 0.443},
      {"measurement": "combination Emax", "setting": "[15]", "value": 0.881},
      {"measurement": "combination Emax", "setting": "[16]", "value": 0.956},
      {"measurement": "combination Emax", "setting": "[17]", "value": 0.37}
    ]}
  ]
}
